Reference: US20200361871A1 (Enterprise Therapeutics Ltd., priority 2018, published 2020)

Target: human TMEM16A (TMEM16Aabc variant) (Homo sapiens, UniProt Q5XXA6, DEL476-501, form not given)
Assay: Automated whole-cell patch clamp (Qpatch) TMEM16A potentiator assay in FRT cells stably expressing human TMEM16A
Type: cell-based
Conditions: for % Potentiation @ 3.33 μM Avg: 3.33 μM solution of test compound, percentage increase of baseline TMEM16A current; for EC50: calculated EC50, Qpatch TMEM16A current at +70 mV
Method in brief: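 FRT cells stably expressing human TMEM16Aabc were recorded by automated whole-cell patch clamp, with intracellular Ca2+ buffered for ~EC20 activation, holding −70 mV and step to +70 mV at 0.05 Hz. Compound was applied cumulatively, 5 min per concentration. Peak current increase as % of baseline was fitted to give EC50 and maximum efficacy.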

Chain of human TMEM16A (TMEM16Aabc variant) (Q5XXA6 with tags, fused parts or gaps DEL476-501): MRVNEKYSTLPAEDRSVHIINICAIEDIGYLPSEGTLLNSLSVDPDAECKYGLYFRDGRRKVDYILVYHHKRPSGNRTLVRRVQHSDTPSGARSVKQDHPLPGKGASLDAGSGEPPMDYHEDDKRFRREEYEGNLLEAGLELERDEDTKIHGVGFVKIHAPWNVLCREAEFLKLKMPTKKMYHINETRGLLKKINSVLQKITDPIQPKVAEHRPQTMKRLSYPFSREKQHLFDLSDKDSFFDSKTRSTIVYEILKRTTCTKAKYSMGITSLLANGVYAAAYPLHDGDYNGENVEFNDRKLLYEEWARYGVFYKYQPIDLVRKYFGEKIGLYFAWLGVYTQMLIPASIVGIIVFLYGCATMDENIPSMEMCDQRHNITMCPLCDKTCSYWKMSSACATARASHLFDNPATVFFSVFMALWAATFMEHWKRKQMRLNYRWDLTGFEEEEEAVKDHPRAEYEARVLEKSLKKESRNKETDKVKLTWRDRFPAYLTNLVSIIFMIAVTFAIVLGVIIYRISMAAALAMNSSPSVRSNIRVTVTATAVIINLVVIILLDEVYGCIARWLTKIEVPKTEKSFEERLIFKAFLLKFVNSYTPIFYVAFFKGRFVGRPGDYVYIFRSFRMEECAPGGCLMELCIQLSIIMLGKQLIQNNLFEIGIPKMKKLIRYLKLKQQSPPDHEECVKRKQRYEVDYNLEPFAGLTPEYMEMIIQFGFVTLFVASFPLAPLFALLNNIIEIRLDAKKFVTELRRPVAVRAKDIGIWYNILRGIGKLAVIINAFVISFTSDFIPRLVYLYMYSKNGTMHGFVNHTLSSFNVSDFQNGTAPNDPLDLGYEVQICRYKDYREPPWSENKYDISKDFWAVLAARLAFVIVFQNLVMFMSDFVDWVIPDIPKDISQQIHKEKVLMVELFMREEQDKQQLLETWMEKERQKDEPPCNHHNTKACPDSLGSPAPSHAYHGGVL

Row | Compound | % Potentiation @ 3.33 μM Avg | EC50
1 | CC(O)c1ccc(O)c(CC(=O)Nc2ccnc(C(=O)NC(C)(C)C)c2)c1 (stereo not drawn) [Example 66, N-tert-Butyl-4-[[2-[2-hydroxy-5-(1-hydroxyethyl)phenyl]acetyl]amino]pyridine-2-carboxamide] | 130% | –
2 | CC(C)(C)NC(=O)c1cccc(NC(=O)Cc2cc(F)c(F)cc2O)c1 [Example 2.12, N-tert-Butyl-3-[[2-(4,5-difluoro-2-hydroxy-phenyl)acetyl]amino] benzamide] | 111% | 310 nM
3 | CC(C)(C)NC(=O)c1cc(NC(=O)Cc2ccccc2F)ccn1 [Example 5.12, N-tert-Butyl-4-[[2-(2-fluorophenyl)acetyl]amino]pyridine-2-carboxamide] | 100% | 760 nM
4 | O=C(Cc1cc(Cl)ccc1O)Nc1ccnc(C(=O)NCc2cccnc2)c1 [Example 32.2, 4-[[2-(5-Chloro-2-hydroxy-phenyl)acetyl]amino]-N-(3-pyridylmethyl)pyridine-2-carboxamide] | 183% | 340 nM
5 | O=C(Cc1cc(F)ccc1O)Nc1ccnc(C(=O)NC2(CO)CCC2)c1 [Example 81.5, 4-[[2-(5-Fluoro-2-hydroxy-phenyl)acetyl]amino]-N-[1-(hydroxymethyl)cyclobutyl] pyridine-2-carboxamide] | 74% | –
6 | CC(C)(C)NC(=O)c1cccc(NC(=O)Cc2c[nH]c3ccccc23)c1 [Example 4.5, N-tert-Butyl-3-[[2-(1H-indol-3-yl)acetyl]amino]benzamide] | 138% | 700 nM
7 | O=C(Cc1ccccc1Cl)Nc1ccnc(C(=O)NC23CC(F)(C2)C3)c1 [Example 30.9, 4-[[2-(2-Chlorophenyl)acetyl]amino]-N-(3-fluoro-1-bicyclo[1.1.1]pentanyl)pyridine-2-carboxamide] | 100% | 470 nM
8 | CC(C)(C)NC(=O)c1cccc(NC(=O)Cc2n[nH]c3ccccc23)c1 [Example 4.1, N-tert-Butyl-3-[[2-(1H-indazol-3-yl)acetyl]amino]benzamide] | 79% | 2170 nM
9 | CC(C)(C)NC(=O)c1cc(NC(=O)Cc2cc(O)ccc2Cl)ccn1 [Example 3.16b, N-tert-Butyl-4-[[2-(2-chloro-5-hydroxy-phenyl)acetyl]amino]pyridine-2-carboxamide] | 167% | 170 nM
10 | CC(C)(NC(=O)c1cc(NC(=O)Cc2ccccc2Cl)ccn1)C1CC1 [Example 30.3, 4-[[2-(2-Chlorophenyl)acetyl]amino]-N-(1-cyclopropyl-1-methyl-ethyl)pyridine-2-carboxamide] | 100% | 250 nM
11 | CC(C)(C)NC(=O)c1cc(NC(=O)Cc2cc(O)ccc2F)ccn1 [Example 3.13b, N-tert-butyl-4-[[2-(2-fluoro-5-hydroxy-phenyl)acetyl]amino]pyridine-2-carboxamide] | 179% | 250 nM
12 | CC(C)(C)NC(=O)c1cc(NC(=O)Cc2cc(Cl)ccc2O)ccn1 [Example 3, N-tert-Butyl-4-[[2-(5-chloro-2-hydroxy-phenyl)acetyl]amino]pyridine-2-carboxamide] | 287% | 110 nM
13 | CC(C)(C)NC(=O)c1cccc(NC(=O)Cc2cccc(O)c2O)c1 [Example 2.16, N-tert-Butyl-3-[[2-(2,3-dihydroxyphenyl)acetyl]amino]benzamide] | 60% | 4270 nM
14 | C#CC(C)(C)NC(=O)c1cc(NC(=O)Cc2ccncc2Cl)ccn1 [Example 22.3, 4-[[2-(3-Chloro-4-pyridyl)acetyl]amino]-N-(1,1-dimethylprop-2-ynyl)pyridine-2-carboxamide] | 132% | –
15 | CC1(NC(=O)c2cccc(NC(=O)Cc3cc(F)ccc3O)c2)CCCCC1 [Example 35.20, 3-[[2-(5-Fluoro-2-hydroxy-phenyl)acetyl]amino]-N-(1-methylcyclohexyl)benzamide] | 240% | 420 nM
16 | O=C(Cc1cc(Cl)ccc1O)Nc1ccnc(C(=O)NC2(CO)CCC2)c1 [Example 35.25, 4-[[2-(5-Chloro-2-hydroxy-phenyl)acetyl]amino]-N-[1-(hydroxymethyl)cyclobutyl]pyridine-2-carboxamide] | 126% | 100 nM
17 | COCC(C#N)(COC)NC(=O)c1cc(NC(=O)Cc2cc(Cl)ccc2O)ccn1 [Example 86, 4-[[2-(5-Chloro-2-hydroxy-phenyl)acetyl]amino]-N-[1-cyano-2-methoxy-1-(methoxymethyl)ethyl]pyridine-2-carboxamide] | 593% | 350 nM
18 | CC(C)(C)NC(=O)c1cc(NC(=O)Cc2ccc(Cl)c(O)c2)ccn1 [Example 3.14b, N-tert-Butyl-4-[[2-(4-chloro-3-hydroxy-phenyl)acetyl]amino]pyridine-2-carboxamide] | 251% | 40 nM

Row | Compound | % Potentiation @ 3.33 μM Avg | EC50
19 | CC1(NC(=O)c2cccc(NC(=O)Cc3cc(Cl)ccc3O)c2)CCC1 [Example 7.10, 3-[[2-(5-Chloro-2-hydroxy-phenyl)acetyl]amino]-N-(1-methylcyclobutyl)benzamide] | 218% | 360 nM
20 | CC(C)(C)NC(=O)c1cccc(NC(=O)Cc2c(O)cccc2O)c1 [Example 2.4, N-tert-Butyl-3-[[2-(2,6-dihydroxyphenyl)acetyl]amino]benzamide] | 53% | –
21 | CC(C)(C)NC(=O)c1cc(NC(=O)Cc2ccccc2C(F)F)ccn1 [Example 23.5, N-tert-Butyl-4-[[2-[2-(difluoromethyl)phenyl]acetyl]amino]pyridine-2-carboxamide] | 110% | –
22 | CC(C)(C)NC(=O)c1cc(NC(=O)Cc2cccc(F)c2F)ccn1 [Example 23.8, N-tert-Butyl-4-[[2-(2,3-difluorophenyl)acetyl]amino]pyridine-2-carboxamide] | 122% | –
23 | COCC(C)(CO)NC(=O)c1cc(NC(=O)Cc2cc(Cl)ccc2O)ccn1 (stereo not drawn) [Example 73, 4-[[2-(5-Chloro-2-hydroxy-phenyl)acetyl]amino]-N-[1-(hydroxymethyl)-2-methoxy-1-methyl-ethyl]pyridine-2-carboxamide] | 196% | 310 nM
24 | CC(C)(C)NC(=O)c1cc(NC(=O)NCC2CCCCC2)ccn1 [Example 64.1, N-tert-Butyl-4-(cyclohexylmethylcarbamoylamino)pyridine-2-carboxamide] | 78% | –
25 | O=C(Cc1cc(Cl)ccc1O)Nc1ccnc(C(=O)N[C@H]2CC[C@@H](O)C2)c1 [Example 35.3, 4-[[2-(5-Chloro-2-hydroxy-phenyl)acetyl]amino]-N-[(1s,3r)-3-hydroxycyclopentyl]pyridine-2-carboxamide] | 144% | –
26 | CC1(NC(=O)c2cc(NC(=O)Cc3cc(Cl)ccc3O)ccn2)CC1 [Example 35.8, 4-[[2-(5-Chloro-2-hydroxy-phenyl)acetyl]amino]-N-(1-methylcyclopropyl)pyridine-2-carboxamide] | 250% | 180 nM
27 | CC(C)(C)NC(=O)c1cc(NC(=O)Cc2ccc(Cl)cc2O)ccn1 [Example 3.6b, N-tert-Butyl-4-[[2-(4-chloro-2-hydroxy-phenyl)acetyl]amino]pyridine-2-carboxamide] | 205% | 120 nM
28 | CC(C)(C)NC(=O)c1cc(NC(=O)Cc2cc(F)ccc2O)ccn1 [Example 20, N-tert-Butyl-4-[[2-(5-fluoro-2-hydroxy-phenyl)acetyl]amino]pyridine-2-carboxamide] | 111% | 220 nM
29 | COCc1cccc(CC(=O)Nc2ccnc(C(=O)NC(C)(C)C)c2)c1 [Example 69, N-tert-Butyl-4-[[2-[3-(methoxymethyl)phenyl]acetyl]amino]pyridine-2-carboxamide] | 47% | –
30 | O=C(Cc1cc(Cl)ccc1O)Nc1ccnc(C(=O)NC2CCCC(O)C2)c1 (stereo not drawn) [Example 35.6, 4-[[2-(5-Chloro-2-hydroxy-phenyl)acetyl]amino]-N-(3-hydroxycyclohexyl)pyridine-2-carboxamide] | 53% | –
31 | C#CC(C)(C)NC(=O)c1cccc(NC(=O)Cc2cc(Cl)ccc2O)c1 [Example 74, 3-[[2-(5-Chloro-2-hydroxy-phenyl)acetyl]amino]-N-(1,1-dimethylprop-2-ynyl)benzamide] | 337% | 180 nM
32 | CC(C)C(C)(C)NC(=O)c1cc(NC(=O)Cc2cc(Cl)ccc2O)ccn1 [Example 7.6, 4-[[2-(5-Chloro-2-hydroxy-phenyl)acetyl]amino]-N-(1,1,2-trimethylpropyl)pyridine-2-carboxamide] | 285% | 100 nM
33 | CC(C)(C)NC(=O)c1cc(NC(=O)Cc2cc(Cl)c(CN3CCC(F)(F)C3)cc2O)ccn1 [Example 27.3, N-tert-Butyl-4-[[2-[5-chloro-4-[(3,3-difluoropyrrolidin-1-yl)methyl]-2-hydroxy-phenyl]acetyl]amino]pyridine-2-carboxamide] | 166% | 290 nM
34 | COC(=O)C1(NC(=O)c2cc(NC(=O)Cc3cc(Cl)ccc3O)ccn2)CCOCC1 [Example 47.2, Methyl 4-[[4-[[2-(5-chloro-2-hydroxy-phenyl)acetyl]amino]pyridine-2-carbonyl]amino]tetrahydropyran-4-carboxylate] | 212% | 230 nM
35 | CC(C)(C#N)NC(=O)c1cc(NC(=O)c2cccnc2Oc2ccccc2)ccn1 [Example 83.25, N-[2-[(1-Cyano-1-methyl-ethyl)carbamoyl]-4-pyridyl]-2-phenoxy-pyridine-3-carboxamide] | -8% | –
36 | CC(C)(C#N)NC(=O)c1cc(NC(=O)CCC2CCCCC2)ccn1 [Example 83.5, N-(1-Cyano-1-methyl-ethyl)-4-(3-cyclohexylpropanoylamino)pyridine-2-carboxamide] | 185% | –
